From US10766902B2, “Wee-1 inhibiting pyrazolopyrimidinone compounds” (ALMAC DISCOVERY LIMITED, priority 2016, dated 2020)

Biological target: Wee-1 kinase (Homo sapiens (Human), UniProt P30291)
Assay: Measurement of Wee-1 kinase activity (ADP-Glo luminescence)
Type: biochemical
Conditions: read-out: Wee1 IC50
Description: Method 1: Measurement of Wee-1 Kinase Activity
In the measurement of Wee-1 activity, a commercial peptide Poly(Lys Tyr(4:1)) hydrobromide was purchased from Sigma Aldrich and used as the substrate. Activated Wee-1 kinase was purchased from Invitrogen (PV3817) and an ADP-Glo luminescent kit was purchased from Promega.
All reactions took place in […] volumes in reaction buffer containing 40 mM Tris-HCl and 20 mM magnesium chloride, supplemented with 0.1 mg/mL bovine serum albumin and 2 mM DTT. Compounds were serially diluted in buffer and 5 μL of each concentration pipetted into a white 384 well plate (Sigma Aldrich M6186). A 5 μL aliquot of the Wee-1 enzyme was added to each well and the plate centrifuged for 1 min to ensure mixing of the enzyme and inhibitor.
The plate was incubated at room temperature for 30 minutes before the addition of 2.0 μg/mL of substrate and 30 μM ATP in a 5 μL aliquot. The plate was centrifuged for one minute and incubated for 1 h at RT.
15 μL of ADP-Glo stop reagent was added to each well to quench the reaction and deplete unconverted ATP. The plate was incubated for a further 40 min in the dark at RT.
30 μL of ADP-Glo kinase detection reagent was added to each well, converting ADP to ATP, catalysing the generation of luciferin by luciferase. The plate was shaken for 1 min, and incubated in the dark for an additional hour.
Luminescence from each well was detected using the Biotek Synergy4 HD plate reader and the percentage inhibition of kinase activity calculated for each inhibitor tested. Positive (kinase only) and negative (no kinase) controls were added to each plate to ensure specific interaction of kinase and inhibitor. The IC50 concentration for each inhibitor was calculated by plotting the percentage kinase inhibition against concentration of inhibitor and the curve generated by non-linear regression fitting.

Chain of Wee-1 kinase (P30291 whole entry): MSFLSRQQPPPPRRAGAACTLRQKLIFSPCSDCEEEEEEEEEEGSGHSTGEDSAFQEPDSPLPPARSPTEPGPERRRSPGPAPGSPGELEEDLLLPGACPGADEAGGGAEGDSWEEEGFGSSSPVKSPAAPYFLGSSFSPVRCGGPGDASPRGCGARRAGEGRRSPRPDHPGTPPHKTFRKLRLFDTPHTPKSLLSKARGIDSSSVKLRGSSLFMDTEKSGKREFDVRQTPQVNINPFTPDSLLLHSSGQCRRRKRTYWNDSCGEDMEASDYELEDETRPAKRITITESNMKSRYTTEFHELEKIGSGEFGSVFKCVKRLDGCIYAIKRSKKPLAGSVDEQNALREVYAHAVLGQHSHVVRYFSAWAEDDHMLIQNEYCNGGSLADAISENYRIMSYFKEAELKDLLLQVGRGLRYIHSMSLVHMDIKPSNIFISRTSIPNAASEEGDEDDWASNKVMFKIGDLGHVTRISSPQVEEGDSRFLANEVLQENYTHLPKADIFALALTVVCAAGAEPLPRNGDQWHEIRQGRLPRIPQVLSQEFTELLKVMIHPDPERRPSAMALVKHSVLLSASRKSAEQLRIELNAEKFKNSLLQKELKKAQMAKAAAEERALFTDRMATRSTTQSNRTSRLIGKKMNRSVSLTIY

| SMILES | IC50 [nM] |
| --- | --- |
| C=CCn1c(=O)c2cnc(Nc3cnn(C(C)C)c3)nc2n1-c1cccc(N=S(C)(C)=O)n1 [Example 80, 1-(6-{[Dimethyl(oxo)-λ^6-sulfanylidene]amino}pyridin-2-yl)-2-(prop-2-en-1-yl)-6-{[1-(propan-2-yl)-1H-pyrazol-4-yl]amino}-1H,2H,3H-pyrazolo[3,4-d]pyrimidin-3-one] | 0.3 |
| CC(C)n1c(=O)c2cnc(N(c3ccc(C#N)cc3)c3ccc(C#N)cc3)nc2n1-c1cccc(N=S(C)(C)=O)n1 [Example 60, 4-[(4-Cyanophenyl)[1-(6-{[dimethyl(oxo)-λ^6-sulfanylidene]amino}pyridin-2-yl)-3-oxo-2-(propan-2-yl)-1H,2H,3H-pyrazolo[3,4-d]pyrimidin-6-yl]amino]benzonitrile] | 760 |
| C=CCn1c(=O)c2cnc(Nc3ccc(N4CCN(C)CC4)c(C)c3)nc2n1-c1cccc(N=S(C)(C)=O)n1 [Example 28, 1-(6-{[Dimethyl(oxo)-λ^6-sulfanylidene]amino}pyridin-2-yl)-6-{[3-methyl-4-(4-methylpiperazin-1-yl)phenyl]amino}-2-(prop-2-en-1-yl)-1H,2H,3H-pyrazolo[3,4-d]pyrimidin-3-one] | 0.7 |
| C=CCn1c(=O)c2cnc(Nc3ccc(N4CCN(CC)CC4)cc3)nc2n1-c1cccc(N=S(C)(C)=O)n1 [Example 10, 1-(6-{[Dimethyl(oxo)-λ^6-sulfanylidene]amino}pyridine-2-yl)-6-{[4-(4-ethylpiperazin-1-yl)phenyl]amino}-2-(prop-2-en-1-yl)-1H,2H,3H-pyrazolo[3,4-d]pyrimidin-3-one] | 0.9 |
| C#CCn1c(=O)c2cnc(Nc3cnn(C(C)C)c3)nc2n1-c1cccc(N=S(C)(C)=O)n1 [Example 94, 1-(6-((Dimethyl(oxo)-λ^6-sulfaneylidene)amino)pyridin-2-yl)-6-((1-isopropyl-1H-pyrazol-4-yl)amino)-2-(prop-2-yn-1-yl)-1,2-dihydro-3H-pyrazolo[3,4-d]pyrimidin-3-one] | 1.2 |
| CCCn1c(=O)c2cnc(Nc3ccc(N4CCN(C)CC4)cc3)nc2n1-c1cccc(N=S(C)(C)=O)n1 [Example 11, 1-(6-{[Dimethyl(oxo)-λ^6-sulfanylidene]amino}pyridine-2-yl)-6-{[4-(4-methylpiperazin-1-yl)phenyl]amino}-2-propyl-1H,2H,3H-pyrazolo[3,4-d]pyrimidin-3-one] | 1.2 |
| CC(C)n1c(=O)c2cnc(Nc3ccc(C#N)cc3)nc2n1-c1cccc(N=S(C)(C)=O)n1 [Example 71, 4-{[1-(6-{[Dimethyl(oxo)-λ^6-sulfanylidene]amino}pyridin-2-yl)-3-oxo-2-(propan-2-yl)-1H,2H,3H-pyrazolo[3,4-d]pyrimidin-6-yl]amino}benzonitrile] | 26 |
| CC(C)n1c(=O)c2cnc(Nc3ccc(N4CCNCC4)cc3)nc2n1-c1cccc(N=S2(=O)CCCC2)n1 [Example 59, 1-{6-[(1-Oxo-1λ^6-thiolan-1-ylidene)amino]pyridin-2-yl}-6-{[4-(piperazin-1-yl)phenyl]amino}-2-(propan-2-yl)-1H,2H,3H-pyrazolo[3,4-d]pyrimidin-3-one] | 1.2 |
| CC(C)n1c(=O)c2cnc(Nc3cnn(C)c3)nc2n1-c1cccc(N=S2(=O)CCCC2)n1 [Example 56, 6-[(1-Methyl-1H-pyrazol-4-yl)amino]-1-{6-[(1-oxo-1λ^6-thiolan-1-ylidene)amino]pyridin-2-yl}-2-(propan-2-yl)-1H,2H,3H-pyrazolo[3,4-d]pyrimidin-3-one] | 18.5 |
| COC[C@@H]1CN(c2ccc(Nc3ncc4c(=O)n(C(C)C)n(-c5cccc(N=S(C)(C)=O)n5)c4n3)cc2)CCO1 [Example 53, 1-(6-{[Dimethyl(oxo)-λ^6-sulfanylidene]amino}pyridin-2-yl)-6-({4-[(2S)-2-(methoxymethyl)morpholin-4-yl]phenyl}amino)-2-(propan-2-yl)-1H,2H,3H-pyrazolo[3,4-d]pyrimidin-3-one] | 0.5 |
| C=CCn1c(=O)c2cnc(Nc3ccc(N4CCOCC4)c(OC)c3)nc2n1-c1cccc(N=S(C)(C)=O)n1 [Example 25, 1-(6-{[Dimethyl(oxo)-λ^6-sulfanylidene]amino}pyridin-2-yl)-6-{[3-methoxy-4-(morpholin-4-yl)phenyl]amino}-2-(prop-2-en-1-yl)-1H,2H,3H-pyrazolo[3,4-d]pyrimidin-3-one] | 0.7 |
| C=CCn1c(=O)c2cnc(Nc3ccc(N4CCN(C)CC4)cc3)nc2n1-c1cccc(S(C)(=O)=NC#N)n1 (centres unmarked) [Example 1, 1-{6-[(Cyanoimino)(methyl)oxo-λ^6-sulfanyl]pyridin-2-yl}-6-{[4-(4-methylpiperazin-1-yl)phenyl]amino}-2-(prop-2-en-1-yl)-1H,2H,3H-pyrazolo[3,4-d]pyrimidin-3-one] | 1.1 |
| CC(C)n1c(=O)c2cnc(Nc3ccc(N4CCOCC4)cc3)nc2n1-c1cccc(N=S(C)(C)=O)n1 [Example 43, 1-(6-{[Dimethyl(oxo)-λ^6-sulfanylidene]amino}pyridin-2-yl)-6-{[4-(morpholin-4-yl)phenyl]amino}-2-(propan-2-yl)-1H,2H,3H-pyrazolo[3,4-d]pyrimidin-3-one] | 0.4 |
| C=CCn1c(=O)c2cnc(Nc3ccc(N4CCN(C)CC4)c(OC)c3)nc2n1-c1cccc(N=S(C)(C)=O)n1 [Example 24, 1-(6-{[Dimethyl(oxo)-λ^6-sulfanylidene]amino}pyridin-2-yl)-6-{[3-methoxy-4-(4-methylpiperazin-1-yl)phenyl]amino}-2-(prop-2-en-1-yl)-1H,2H,3H-pyrazolo[3,4-d]pyrimidin-3-one] | 1.4 |
| CC(C)n1c(=O)c2cnc(Nc3cccc(C(F)(F)F)c3)nc2n1-c1cccc(N=S(C)(C)=O)n1 [Example 73, 1-(6-{[Dimethyl(oxo)-λ^6-sulfanylidene]amino}pyridin-2-yl)-2-(propan-2-yl)-6-{[3-(trifluoromethyl)phenyl]amino}-1H,2H,3H-pyrazolo[3,4-d]pyrimidin-3-one] | 66 |
| C=CCn1c(=O)c2cnc(Nc3ccc(N4CCO[C@H](COC)C4)cc3)nc2n1-c1cncc(N=S(C)(C)=O)n1 [Example 74, 1-(6-{[Dimethyl(oxo)-λ^6-sulfanylidene]amino}pyrazin-2-yl)-6-({4-[(2S)-2-(methoxymethyl)morpholin-4-yl]phenyl}amino)-2-(prop-2-en-1-yl)-1H,2H,3H-pyrazolo[3,4-d]pyrimidin-3-one] | 0.3 |
| C=CCn1c(=O)c2cnc(Nc3ccc(N4CCNCC4)cc3)nc2n1-c1cccc(N=S(C)(C)=O)c1 [Example 18, 1-(3-{[Dimethyl(oxo)-λ^6-sulfanylidene]amino}phenyl)-6-{[4-(piperazin-1-yl)phenyl]amino}-2-(prop-2-en-1-yl)-1H,2H,3H-pyrazolo[3,4-d]pyrimidin-3-one] | 0.8 |
| CC(C)n1c(=O)c2cnc(Nc3ccc(N4CCN(CC(F)(F)F)CC4)cc3)nc2n1-c1cccc(N=S(C)(C)=O)n1 [Example 50, 1-(6-{[Dimethyl(oxo)-λ^6-sulfanylidene]amino}pyridin-2-yl)-2-(propan-2-yl)-6-({4-[4-(2,2,2-trifluoroethyl)piperazin-1-yl]phenyl}amino)-1H,2H,3H-pyrazolo[3,4-d]pyrimidin-3-one] | 0.4 |
| C=CCn1c(=O)c2cnc(Nc3ccc(OCCNC)cc3)nc2n1-c1cccc(N=S(C)(C)=O)c1 [Example 27, 1-(3-{[Dimethyl(oxo)-λ^6-sulfanylidene]amino}phenyl)-6-({4-[2-(methylamino)ethoxy]phenyl}amino)-2-(prop-2-en-1-yl)-1H,2H,3H-pyrazolo[3,4-d]pyrimidin-3-one] | 1.7 |
| C=CCn1c(=O)c2cnc(Nc3ccc(N4CCN(C5CC5)CC4)cc3)nc2n1-c1cccc(N=S(C)(C)=O)n1 [Example 8, 6-{[4-(4-Cyclopropylpiperazin-1-yl)phenyl]amino}-1-(6-{[dimethyl(oxo)-λ^6-sulfanylidene]amino}pyridine-2-yl)-2-(prop-2-en-1-yl)-1H,2H,3H-pyrazolo[3,4-d]pyrimidin-3-one] | 0.3 |
| C=CCn1c(=O)c2cnc(Nc3cc(F)cc(F)c3)nc2n1-c1cccc(N=S(C)(C)=O)n1 [Example 84, 6-[(3,5-Difluorophenyl)amino]-1-(6-{[dimethyl(oxo)-λ^6-sulfanylidene]amino}pyridin-2-yl)-2-(prop-2-en-1-yl)-1H,2H,3H-pyrazolo[3,4-d]pyrimidin-3-one] | 1 |
| C=CCn1c(=O)c2cnc(Nc3ccc(N4CCNC(C(F)(F)F)C4)cc3)nc2n1-c1cncc(N=S(C)(C)=O)n1 (racemic) [Example 93, rac-1-(6-{[Dimethyl(oxo)-λ^6-sulfanylidene]amino}pyrazin-2-yl)-2-(prop-2-en-1-yl)-6-({4-[3-(trifluoromethyl)piperazin-1-yl]phenyl}amino)-1H,2H,3H-pyrazolo[3,4-d]pyrimidin-3-one] | 0.4 |
| CC(C)n1c(=O)c2cnc(Nc3ccc(N(C)C)cc3)nc2n1-c1cccc(N=S(C)(C)=O)n1 [Example 58, 1-(6-{[Dimethyl(oxo)-λ^6-sulfanylidene]amino}pyridin-2-yl)-6-{[4-(dimethylamino)phenyl]amino}-2-(propan-2-yl)-1H,2H, 3H-pyrazolo[3,4-d]pyrimidin-3-one] | 0.4 |
